Data on 4 compounds can be found in patent US20050020556A1, “Method for treating diseases using HSP90-inhibiting agents in combination with platinum coordination complexes” (Kosan Biosciences, Inc., priority 2003, published 2005).

For data set [1] the following is noted: background statement; cited from earlier work.
The test system of data set [2] is ErbB2 protein. Nature of the data set: ErbB2 protein expression in glioma cells. The format is cell-based.
The conditions of data set [3]: clinical trials, cited from earlier work.
Data set [4] deals with ErbB2 protein. Nature of the data set: ErbB2 protein expression in SKBr3 cells. It counts as cell-based, human.
In data set [5] the test system is SKBr cells (human breast cancer cells). Nature of the data set: Cell viability (MTS) drug combination assay, combination index, SKBr-3 cells. Particulars: combination with 17-AAG, CI<1 synergism. The format is cell-based. The procedure:
Human colon adenocarcinoma cell line, DLD-1, and human breast adenocarcinoma cell line, SKBr-3, were obtained from American Type Culture Collection (manassas, VA). […] Other cytotoxic agents were purchased commercially from suppliers such as Sigma Chemical Co. (St. Louis, Mo.) and Sequoia Research Products (Oxford, UK). Cells were seeded in duplicate in 96-well microtiter plates at a density of 5,000 cells per well and allowed to attach overnight. […] Cell viability was determined using the MTS assay (Promega). […] Based on the IC50 values of each individual drug, combined drug treatment was designed at constant ratios of two drugs, i.e., equivalent to the ratio of their IC50. […] The drug was then added to the cells and incubated for 48 hours. […] Cell viability was determined by the MTS assay. Synergism, additivity or antagonism was determined by median effect analysis using the combination index (CI) calculated using Calcusyn (Biosoft, Cambridge, UK). […] The quantities [Dx]1 and [Dx]2 represent the concentrations of the first and second drug, respectively, that when used alone provide a response of x % in the assay. […] The “enhancing” effect of two drugs can also be determined.

Data set [6] concerns DLD-1 cells (human colorectal cancer cells). Kind of data set: Cell viability (MTS) drug combination assay, combination index, DLD-1 cells. It counts as cell-based. Particulars: combination with 17-AAG, CI<1 synergism. The procedure:
Human colon adenocarcinoma cell line, DLD-1, and human breast adenocarcinoma cell line, SKBr-3, were obtained from American Type Culture Collection (manassas, VA). […] Other cytotoxic agents were purchased commercially from suppliers such as Sigma Chemical Co. (St. Louis, Mo.) and Sequoia Research Products (Oxford, UK). Cells were seeded in duplicate in 96-well microtiter plates at a density of 5,000 cells per well and allowed to attach overnight. […] Cell viability was determined using the MTS assay (Promega). […] Based on the IC50 values of each individual drug, combined drug treatment was designed at constant ratios of two drugs, i.e., equivalent to the ratio of their IC50. Two treatment schedules were used: In one schedule, the cells were exposed to 24 hours of 17-AAG or 17-DMAG. The drug was then added to the cells and incubated for 48 hours. […] Cell viability was determined by the MTS assay. Synergism, additivity or antagonism was determined by median effect analysis using the combination index (CI) calculated using Calcusyn (Biosoft, Cambridge, UK). […] The quantities [Dx]1 and [Dx]2 represent the concentrations of the first and second drug, respectively, that when used alone provide a response of x % in the assay. […] The “enhancing” effect of two drugs can also be determined.

[7] abbreviates: 17-AAG Post-Administration (platinum complex 24 h, then 17-AAG 48 h).

Read-outs that look alike come from different tables or passages of the source.

Take “17-(allylamino)-17-desmethoxygeldanamycin [17-AAG]”: in data set [1], the hepatotoxicity entry is “reduced hepatotoxicity”. Moreover, the “expression of ErbB2 protein” value in the data set with ErbB2 protein [2] and in the data set on ErbB2 protein [4] was “reduced the expression of ErbB2 protein” throughout. The MTD result in data set [3] (daily x 5 schedule) is “about 40 mg/m^2”; in data set [3] (once-weekly regimen) it was “about 308 mg/m^2”; in data set [3] (twice-weekly regimen), “about 220 mg/m^2”.

In the case of `CO[C@H]1/C=C\C=C(/C)C(=O)NC2=CC(=O)C(NCCN(C)C)=C(C[C@@H](C)C[C@H](OC)[C@H](O)[C@@H](C)/C=C(\C)[C@@H]1OC(N)=O)C2=O` [17-DMAG, 17-(2-dimethylaminoethyl)amino-17-desmethoxygeldanamycin], the “expression of ErbB2 protein” value in the data set with ErbB2 protein [2] and in the data set with ErbB2 protein [4] was “reduced the expression of ErbB2 protein” in each case.

Turning to `N.N.[Cl][Pt][Cl]` [Cisplatin, cisplatin], the “CI value (combination index)” value in data set [5] (setting [7]) is listed as “Enhancement”; in data set [5] (17-AAG Pre-Administration (17-AAG 24 h, then platinum complex 48 h)) it was “No Effect”; in data set [6] (setting [7]) it was “No Effect”; in data set [6] (17-AAG Pre-Administration (17-AAG 24 h, then platinum complex 48 h), CI=1 additivity, CI>1 antagonism), “No Effect”.

With `COC1=C2C[C@@H](C)C[C@H](OC)[C@H](O)[C@@H](C)/C=C(\C)[C@H](OC(N)=O)[C@@H](OC)/C=C\C=C(/C)C(=O)NC(=CC1=O)C2=O` [geldanamycin, Geldanamycin], in data set [1], the hepatotoxicity result is on record as “unacceptable hepatotoxicity”.
